Source: ChEMBL document CHEMBL1201862, “PubChem BioAssay data set” (2004)
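Assay format: 96-well plates, 48-hour exposure. At the GI50, growth is halved.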 Active and inactive are the calls of the source. No stated cut-off is given here; in the data, active = GI50 up to about 1.1 µM and inactive = higher.

Experiments:
Test in all cases: NCI-60 cell line screen, 48 h
HT-29 = tested on: HT-29
TK-10 = tested on: TK-10
SK-MEL-2 = tested on: SK-MEL-2
M14 = tested on: M14
SNB-75 = tested on: SNB-75
UO-31 = tested on: UO-31
786-0 = tested on: 786-0
HCC 2998 = tested on: HCC 2998
Malme-3M = tested on: Malme-3M
LOX IMVI = tested on: LOX IMVI
SF-295 = tested on: SF-295
ACHN = tested on: ACHN
SR = tested on: SR
UACC-62 = tested on: UACC-62
CCRF-CEM = tested on: CCRF-CEM
HL-60 = tested on: HL-60
SK-MEL-5 = tested on: SK-MEL-5
SF-539 = tested on: SF-539
OVCAR-4 = tested on: OVCAR-4
CAKI-1 = tested on: CAKI-1

| SMILES | GI50 (HT-29) | GI50 (TK-10) | GI50 (SK-MEL-2) | GI50 (M14) | GI50 (SNB-75) | GI50 (UO-31) | GI50 (786-0) | GI50 (HCC 2998) | GI50 (Malme-3M) | GI50 (LOX IMVI) | GI50 (SF-295) | GI50 (ACHN) | GI50 (SR) | GI50 (UACC-62) | GI50 (CCRF-CEM) | GI50 (HL-60) | GI50 (SK-MEL-5) | GI50 (SF-539) | GI50 (OVCAR-4) | GI50 (CAKI-1) |
| --- | --- | --- | --- | --- | --- | --- | --- | --- | --- | --- | --- | --- | --- | --- | --- | --- | --- | --- | --- | --- |
| CC(SC1=CC(=O)c2c(O)ccc(O)c2C1=O)C(=O)O (stereo not given) | 41.7 µM (inactive) | > 51.5 µM (inactive) | > 100 µM (inactive) | 32.1 µM (inactive) | > 50.5 µM (inactive) | > 47.3 µM (inactive) | 23.9 µM (inactive) | > 73.8 µM (inactive) | > 44.5 µM (inactive) | > 41.2 µM (inactive) | > 100 µM (inactive) | 26.7 µM (inactive) | > 52.8 µM (inactive) | 17.5 µM (inactive) | 3.08 µM (inactive) | 13.6 µM (inactive) | > 61.5 µM (inactive) | > 68.5 µM (inactive) | 17 µM (inactive) | 27.4 µM (inactive) |
| COC(=O)C1(F)C(=O)NC(=O)NC1O (stereo not given) | > 66.5 µM (inactive) | > 100 µM (inactive) | > 100 µM (inactive) | > 100 µM (inactive) | > 65 µM (inactive) | 59.4 µM (inactive) | > 100 µM (inactive) | > 45.9 µM (inactive) | > 100 µM (inactive) | > 100 µM (inactive) | > 100 µM (inactive) | > 75 µM (inactive) | > 53 µM (inactive) | > 100 µM (inactive) | > 89.1 µM (inactive) | 31 µM (inactive) | > 100 µM (inactive) | 25.4 µM (inactive) | 80 µM (inactive) | 97.9 µM (inactive) |
| CC1=C(C(=O)Nc2ccccc2C)C(c2ccc(Cl)c(Cl)c2)C(C(=O)Nc2ccccc2C)=C(C)N1 | 20 µM (inactive) | 21.7 µM (inactive) | 16.1 µM (inactive) | 16.6 µM (inactive) | 36.5 µM (inactive) | 25.7 µM (inactive) | 24.7 µM (inactive) | 25.6 µM (inactive) | 22.5 µM (inactive) | 20.9 µM (inactive) | 21.6 µM (inactive) | 27.3 µM (inactive) | 12.7 µM (inactive) | 17.4 µM (inactive) | 22.7 µM (inactive) | 15.1 µM (inactive) | 17.5 µM (inactive) | 25.5 µM (inactive) | 16.4 µM (inactive) | 26.7 µM (inactive) |
| O=C(O)CNC(=O)c1cccc2c(=O)c3ccccc3[nH]c12 | > 100 µM (inactive) | > 100 µM (inactive) | > 100 µM (inactive) | > 100 µM (inactive) | 84.7 µM (inactive) | 70.1 µM (inactive) | > 100 µM (inactive) | > 100 µM (inactive) | > 100 µM (inactive) | > 100 µM (inactive) | > 100 µM (inactive) | > 100 µM (inactive) | 14.9 µM (inactive) | 99.8 µM (inactive) | 97.3 µM (inactive) | > 100 µM (inactive) | 99.8 µM (inactive) | > 100 µM (inactive) | > 100 µM (inactive) | > 100 µM (inactive) |
| COc1ccc(/C=c2/s/c(=C(\C#N)c3nc4ccccc4[nH]3)n(-c3ccccc3)c2=O)cc1 | 6.12 µM (inactive) | > 52.7 µM (inactive) | > 77.6 µM (inactive) | > 56.9 µM (inactive) | > 26.4 µM (inactive) | > 52.6 µM (inactive) | 12.8 µM (inactive) | > 82.8 µM (inactive) | > 42.4 µM (inactive) | 36.9 µM (inactive) | 15.3 µM (inactive) | > 82.4 µM (inactive) | > 100 µM (inactive) | > 28.3 µM (inactive) | > 100 µM (inactive) | > 100 µM (inactive) | > 92.7 µM (inactive) | 25.1 µM (inactive) | 6.92 µM (inactive) | > 69.3 µM (inactive) |
| CC1=NN(c2ccccc2)C(=O)C12[C@H](c1ccccc1)C2(C#N)C#N (stereo not given in full) | 4.59 µM (inactive) | 12.5 µM (inactive) | 6.43 µM (inactive) | 1.44 µM (inactive) | 6.11 µM (inactive) | 14.7 µM (inactive) | 2.41 µM (inactive) | 18.5 µM (inactive) | 4.68 µM (inactive) | 1.78 µM (inactive) | 12.9 µM (inactive) | 8.36 µM (inactive) | 1.91 µM (inactive) | 3.44 µM (inactive) | 0.457 µM (active) | 2.55 µM (inactive) | 4.48 µM (inactive) | 14.6 µM (inactive) | 5.46 µM (inactive) | 6.41 µM (inactive) |
| NC(=O)c1ccccc1NC(=O)C(=O)Nc1n[nH]c(N)n1 | > 100 µM (inactive) | > 100 µM (inactive) | > 100 µM (inactive) | > 100 µM (inactive) | > 100 µM (inactive) | > 100 µM (inactive) | > 100 µM (inactive) | > 100 µM (inactive) | > 100 µM (inactive) | > 100 µM (inactive) | > 100 µM (inactive) | > 100 µM (inactive) | > 100 µM (inactive) | > 100 µM (inactive) | > 100 µM (inactive) | > 100 µM (inactive) | > 100 µM (inactive) | > 100 µM (inactive) | > 100 µM (inactive) | > 100 µM (inactive) |
| COC(=O)C#CC(N)=O | > 100 µM (inactive) | > 55.6 µM (inactive) | > 91.2 µM (inactive) | 19.5 µM (inactive) | 35.1 µM (inactive) | > 100 µM (inactive) | > 59.3 µM (inactive) | > 100 µM (inactive) | 13.4 µM (inactive) | > 35.8 µM (inactive) | > 100 µM (inactive) | > 100 µM (inactive) | 24.2 µM (inactive) | > 64.7 µM (inactive) | 13.9 µM (inactive) | 4.94 µM (inactive) | > 100 µM (inactive) | > 100 µM (inactive) | > 100 µM (inactive) | 28.1 µM (inactive) |
| CCOC(=O)C(SCCO)C(C(=O)OCC)n1ccc(=O)[nH]c1=O (stereo not given) | 23.5 µM (inactive) | > 56.8 µM (inactive) | 33.7 µM (inactive) | 27.3 µM (inactive) | 25.4 µM (inactive) | > 92 µM (inactive) | 16.6 µM (inactive) | > 71.8 µM (inactive) | 12.5 µM (inactive) | 14.8 µM (inactive) | > 100 µM (inactive) | 21.2 µM (inactive) | 11.9 µM (inactive) | 20.4 µM (inactive) | 1.98 µM (inactive) | 3.16 µM (inactive) | 63.5 µM (inactive) | 31.5 µM (inactive) | > 49.3 µM (inactive) | 7.83 µM (inactive) |
| C=C(Cl)C(Br)(CCl)CCC(Br)C(C)(C)Cl (stereo not given) | 2.02 µM (inactive) | 12.2 µM (inactive) | 6.24 µM (inactive) | 2.91 µM (inactive) | 3.6 µM (inactive) | 5.61 µM (inactive) | 1.95 µM (inactive) | 14.1 µM (inactive) | 2.83 µM (inactive) | 1.25 µM (inactive) | 5.77 µM (inactive) | 7.96 µM (inactive) | 2.92 µM (inactive) | 3.37 µM (inactive) | 0.92 µM (active) | 2.43 µM (inactive) | 2.47 µM (inactive) | 6.95 µM (inactive) | 8.83 µM (inactive) | 4.95 µM (inactive) |
| C/C(CC(O)(C(F)(F)F)C(F)(F)F)=N/Nc1ccc([N+](=O)[O-])cc1[N+](=O)[O-] | 2.69 µM (inactive) | 3.56 µM (inactive) | 2.28 µM (inactive) | 3.61 µM (inactive) | 2.69 µM (inactive) | 2.32 µM (inactive) | 3.5 µM (inactive) | 3.6 µM (inactive) | 2.11 µM (inactive) | 3.3 µM (inactive) | 4.1 µM (inactive) | 2.56 µM (inactive) | 4.9 µM (inactive) | 3.02 µM (inactive) | 3.41 µM (inactive) | 2.94 µM (inactive) | 1.68 µM (inactive) | 3.78 µM (inactive) | 3.42 µM (inactive) | 2.24 µM (inactive) |
| CC1OC(n2cc(F)c(=O)[nH]c2=O)CCC1O (stereo not given) | 98.9 µM (inactive) | > 100 µM (inactive) | > 100 µM (inactive) | > 91.4 µM (inactive) | > 72.9 µM (inactive) | 85.3 µM (inactive) | > 100 µM (inactive) | 30.1 µM (inactive) | 99.8 µM (inactive) | > 100 µM (inactive) | > 84.5 µM (inactive) | > 95.9 µM (inactive) | > 94 µM (inactive) | > 100 µM (inactive) | > 100 µM (inactive) | > 79.4 µM (inactive) | > 56.2 µM (inactive) | 29.2 µM (inactive) | > 100 µM (inactive) | > 91.6 µM (inactive) |
| COc1cc(/C=C2/C(=O)NC(Cc3cc(OC)c(OC)c(C)c3OC)C(=O)N2Cc2ccccc2)c(OC)c(C)c1OC (stereo not given) | 79.8 µM (inactive) | 56.5 µM (inactive) | 30.2 µM (inactive) | 33 µM (inactive) | 45.6 µM (inactive) | 26 µM (inactive) | 79.3 µM (inactive) | 55.1 µM (inactive) | 30.8 µM (inactive) | 70 µM (inactive) | 50.5 µM (inactive) | 61.7 µM (inactive) | 14.3 µM (inactive) | 89.7 µM (inactive) | 39.7 µM (inactive) | 24.4 µM (inactive) | 43.7 µM (inactive) | 75 µM (inactive) | 44.4 µM (inactive) | 39.6 µM (inactive) |
| CN(C)CCC1(C2=CCCC2)CC/C(=C\c2ccccc2)C1=O (stereo not given) | 17.1 µM (inactive) | 15.6 µM (inactive) | 16.4 µM (inactive) | 16.4 µM (inactive) | 17 µM (inactive) | 16.6 µM (inactive) | 14.7 µM (inactive) | 15.8 µM (inactive) | 15.7 µM (inactive) | 17.1 µM (inactive) | 19.1 µM (inactive) | 15.3 µM (inactive) | 25.2 µM (inactive) | 13.6 µM (inactive) | 17.1 µM (inactive) | 11.8 µM (inactive) | 14.7 µM (inactive) | 16.6 µM (inactive) | 16.6 µM (inactive) | 12.5 µM (inactive) |
